Laboratory results from US20020086895A1, “Methods of treating fungal infections” (priority 1985, published 2002).

Legend:
C. albicans = assay: Antifungal screen of matrix-synthesis aurones in 96-well plates, C. albicans; format: cell-based, Candida albicans
Method: (§1) Thirty-eight 96-well plates were prepared with the above samples and tested against both C. albicans and A. fumigatus at either 8 μg/ml or 12.5 μg/ml. Plates with high activity were retested at the same concentration to confirm activity.
(§2) These compounds have formulae where W′ is OH, V is 3′,4′-(1,1-dimethylpropyloxy) to form a dihydropyran series, and X is selected from 3,4-dimethoxyphenyl, 4-t-butylphenyl, 2(prop-2-enyloxy)phenyl, 3-phenoxyphenyl, 3-ethoxy-4-hydroxyphenyl, 6-cyclohexenyl, and norborn-4-yl.

A. fumigatus = assay: Antifungal screen of matrix-synthesis aurones in 96-well plates, A. fumigatus; format: cell-based, Aspergillus fumigatus
Method: as §1, §2

[1] = test system: Staphylococcus aureus KLE820; assay: Activity of selected aurones against Staphylococcus aureus KLE820; format: cell-based; conditions: read-out: % Inhibition of growth at 10 ug/ml
Description: Compounds described herein also have activity against bacteria.

[2] = test system: Candida albicans (strain ATCC #90028); assay: Inhibition of Candida spp. culture (XTT); format: cell-based; conditions: assay validation
Method: Candida albicans (strain ATCC #90028), Candida krusei (strain ATCC #90030), and Torulopsis (Candida) glabrata (strain ATCC #6258) were subcultured from cryopreserved stocks onto sabourand dextrose agar plates. Blastoconidia were suspended into RPMI-MOPS (media) and inoculated (500 cfu/well) into 96-well plates containing test compounds in a final volume of 100 μL/well. After 22 hours at 35° C., 25 μL of XTT (2,3-bis(2-methoxy-4-nitro-5-sulfophenyl)-5-[(phenylamino)carbonyl]-2H-tetrazolium hydroxide), (100 μg/mL) with PMS (phenazine methyl sulfate, 5 μM) were added to each well, followed by 2 hours of shaking. Growth was assessed spectrophotometrically by measuring the appearance of soluble formazan stain at 450 nm using an Emax microplate reader.

Compound	CA percent inhibition (C. albicans; @8 μg/ml)	AF percent inhibition (A. fumigatus; @8 μg/ml)	CA percent inhibition (C. albicans; @12.5 μg/ml)	AF percent inhibition (A. fumigatus; @12.5 μg/ml)	other results
C=CCc1c(O)cc2c(c1O)C(=O)C(=Cc1c(C)cccc1C)O2	7%	49%			
COc1ccccc1C=C1Oc2cc3c(c(O)c2C1=O)CCC(C)(C)O3	76%	70%			
CC(C)=CCc1c(O)cc2c(c1O)C(=O)C(=Cc1cc(C)cc(C)c1)O2			CA 26% AF	#13% @12.5 μg/ml	
COc1ccccc1C=C1Oc2cc(O)cc(O)c2C1=O				CA 0% AF 0% @12.5 μg/ml	
C=CCc1c(O)cc2c(c1O)C(=O)C(=Cc1ccc(O)c(O)c1O)O2	69%	35%			
Cc1ccccc1C=C1Oc2cc3c(c(O)c2C1=O)CCC(C)(C)O3	13%	34%			
O=C1C(=Cc2ccc(Oc3ccccc3)cc2)Oc2cc(O)cc(O)c21			57%	48%	
C=CCc1c(O)cc2c(c1O)C(=O)C(=Cc1ccc(OCC)c(OC)c1)O2	65%	69%			
O=C1/C(=C/c2c(Br)cc(Br)c(O)c2Br)Oc2cc(O)c(Cc3ccccc3)c(O)c21					inhibition at 10 µg/mL [1]: 100%
CC1(C)CCc2c(cc3c(c2O)C(=O)C(=Cc2ccc(Oc4ccccc4)cc2)O3)O1	80%	76%			
CC(C)=CCc1c(O)cc2c(c1O)C(=O)C(=Cc1cccc(O)c1O)O2			94%	31%	
CC(C)=CCc1c(O)cc2c(c1O)C(=O)C(=Cc1cc(C(C)(C)C)c(O)c(C(C)(C)C)c1)O2			47%	48%	
CC(C)=CCc1c(O)cc2c(c1O)C(=O)C(=Cc1ccc(O)c(O)c1)O2 [drawing 36+drawing 32]			92%	0%	
CC(C)(C)c1cc(C=C2Oc3cc(O)cc(O)c3C2=O)cc(C(C)(C)C)c1O			17%	35%	
Cc1ccc(C=C2Oc3cc4c(c(O)c3C2=O)CCC(C)(C)O4)cc1	58%	93%			
C=CCc1c(O)cc2c(c1O)C(=O)C(=Cc1cc(C(C)(C)C)c(O)c(C(C)(C)C)c1)O2	49%	60%			
CC(C)=CCc1c(O)cc2c(c1O)C(=O)C(=Cc1ccc(C)cc1)O2			CA 18% AF 18% @12.5 μg/ml	CA 18% AF 18% @12.5 μg/ml	
O=C1C(=Cc2ccc(F)cc2F)Oc2cc(O)cc(O)c21			0%	43%	
C=CCc1c(O)cc2c(c1O)C(=O)C(=Cc1ccc(O)c(O)c1)O2	CA 0% AF 0% @8 μg/ml	CA 0% AF 0% @8 μg/ml			
C=CCc1c(O)cc2c(c1O)C(=O)C(=Cc1cccc(O)c1O)O2	45%	0%			
CCOc1ccccc1C=C1Oc2cc3c(c(O)c2C1=O)CCC(C)(C)O3	80%	71%			
Cc1cc(C)c(C=C2Oc3cc4c(c(O)c3C2=O)CCC(C)(C)O4)c(C)c1	0%	28%			

Compound	CA percent inhibition (C. albicans; @8 μg/ml)	AF percent inhibition (A. fumigatus; @8 μg/ml)	CA percent inhibition (C. albicans; @12.5 μg/ml)	AF percent inhibition (A. fumigatus; @12.5 μg/ml)	other results
CC1(C)CCc2c(cc3c(c2O)C(=O)C(=Cc2ccc(O)c(O)c2)O3)O1	87%	0%			
C=CCOc1ccccc1C=C1Oc2cc(O)cc(O)c2C1=O			0%	43%	
CC(C)=CCc1c(O)cc2c(c1O)C(=O)C(=Cc1ccc(F)cc1F)O2			0%	40%	
NC(=O)OC[C@H](O)[C@@H](O)[C@H](N)C(=O)N[C@H](C(=O)O)[C@H]1O[C@@H](n2cc(C(=O)O)c(=O)[nH]c2=O)[C@H](O)[C@@H]1O [polyoxin D]					C. albicans minimum inhibitory concentration (MIC) compared with reported ranges [2]: within reported ranges
Cc1cccc(C)c1C=C1Oc2cc(O)cc(O)c2C1=O				CA 0% AF 0% @12.5 μg/ml	
O=C1C(=Cc2ccc(O)c(O)c2O)Oc2cc(O)cc(O)c21			94%	44%	
CCc1ccc(C=C2Oc3cc(O)cc(O)c3C2=O)cc1				CA 0% AF 0% @12.5 μg/ml	
CCOc1ccc(C=C2Oc3cc4c(c(O)c3C2=O)CCC(C)(C)O4)cc1OC	58%	67%			
Cc1cc(C)c(C=C2Oc3cc(O)cc(O)c3C2=O)c(C)c1			6%	48%	
C=CCc1c(O)cc2c(c1O)C(=O)C(=Cc1c(C)cc(C)cc1C)O2	16%	7%			
CCOc1ccccc1C=C1Oc2cc(O)c(CC=C(C)C)c(O)c2C1=O			25%	51%	
C=CCc1c(O)cc2c(c1O)C(=O)C(=Cc1ccccc1OCC)O2	22%	52%			
Cc1cc(C)cc(C=C2Oc3cc(O)cc(O)c3C2=O)c1			CA 4% AF	#17% @12.5 μg/ml	
CCc1ccc(C=C2Oc3cc(O)c(CC=C(C)C)c(O)c3C2=O)cc1			31%	41%	
C=CCc1c(O)cc2c(c1O)C(=O)C(=Cc1ccc(F)cc1F)O2	53%	96%			
C=CCc1c(O)cc2c(c1O)C(=O)C(=Cc1ccc(C)cc1)O2	10%	47%			
C=CCc1c(O)cc2c(c1O)C(=O)C(=Cc1ccccc1C)O2	4%	11%			
CC(C)=CCc1c(O)cc2c(c1O)C(=O)C(=Cc1c(C)cc(C)cc1C)O2			51%	53%	
CC(C)=CCc1c(O)cc2c(c1O)C(=O)C(=Cc1ccccc1C)O2			11%	0%	
CC1(C)CCc2c(cc3c(c2O)C(=O)C(=Cc2cccc(O)c2O)O3)O1	96%	52%			
O=C1C(=Cc2ccc(O)c(O)c2)Oc2cc(O)cc(O)c21			95%	36%	
C=CCOc1ccccc1C=C1Oc2cc3c(c(O)c2C1=O)CCC(C)(C)O3	67%	94%			

Compound	CA percent inhibition (C. albicans; @8 μg/ml)	AF percent inhibition (A. fumigatus; @8 μg/ml)	CA percent inhibition (C. albicans; @12.5 μg/ml)	AF percent inhibition (A. fumigatus; @12.5 μg/ml)	other results
Cc1ccccc1C=C1Oc2cc(O)cc(O)c2C1=O				CA 0% AF 0% @12.5 μg/ml	
C=CCOc1ccccc1C=C1Oc2cc(O)c(CC=C)c(O)c2C1=O	53%	96%			
Cc1cccc(C)c1C=C1Oc2cc3c(c(O)c2C1=O)CCC(C)(C)O3	82%	97%			
CCc1ccc(C=C2Oc3cc4c(c(O)c3C2=O)CCC(C)(C)O4)cc1	73%	68%			
CC(C)=CCc1c(O)cc2c(c1O)C(=O)C(=Cc1ccc(O)c(O)c1O)O2			89%	0%	
CCOc1ccccc1C=C1Oc2cc(O)cc(O)c2C1=O				CA 0% AF 0% @12.5 μg/ml	
CC(C)=CCc1c(O)cc2c(c1O)C(=O)C(=Cc1ccc(Oc3ccccc3)cc1)O2				CA 0% AF 0% @12.5 μg/ml	
C=CCc1c(O)cc2c(c1O)C(=O)C(=Cc1cc(C)cc(C)c1)O2	CA 42% AF	#81% @8 μg/ml			
C=CCc1c(O)cc2c(c1O)C(=O)C(=Cc1ccc(CC)cc1)O2	16%	47%			
CC1(C)CCc2c(cc3c(c2O)C(=O)C(=Cc2cc(C(C)(C)C)c(O)c(C(C)(C)C)c2)O3)O1	69%	68%			
CCOc1ccc(C=C2Oc3cc(O)c(CC=C(C)C)c(O)c3C2=O)cc1OC			25%	49%	
O=C1C(=Cc2cccc(O)c2O)Oc2cc(O)cc(O)c21			79%	27%	
C=CCc1c(O)cc2c(c1O)C(=O)C(=Cc1ccc(Oc3ccccc3)cc1)O2	52%	68%			
Cc1cc(C)cc(C=C2Oc3cc4c(c(O)c3C2=O)CCC(C)(C)O4)c1	CA 0% AF	#11% @8 μg/ml			
CC1(C)CCc2c(cc3c(c2O)C(=O)C(=Cc2ccc(F)cc2F)O3)O1	0%	94%			
CC1(C)CCc2c(cc3c(c2O)C(=O)C(=Cc2ccc(O)c(O)c2O)O3)O1	0%	69%			
Cc1ccc(C=C2Oc3cc(O)cc(O)c3C2=O)cc1				CA 0% AF 0% @12.5 μg/ml	
C=CCc1c(O)cc2c(c1O)C(=O)C(=Cc1ccccc1OC)O2	20%	62%			
CCOc1ccc(C=C2Oc3cc(O)cc(O)c3C2=O)cc1OC				CA 0% AF 0% @12.5 μg/ml	
C=CCOc1ccccc1C=C1Oc2cc(O)c(CC=C(C)C)c(O)c2C1=O			59%	40%	
COc1ccccc1C=C1Oc2cc(O)c(CC=C(C)C)c(O)c2C1=O			15%	39%	
CC(C)=CCc1c(O)cc2c(c1O)C(=O)C(=Cc1c(C)cccc1C)O2			7%	0%	
